Converted amounts (≈) assume the structure as drawn.
What was measured:
[1] = Evaluation of conversion rate to active form in CD1 mouse plasma; format: in vitro ADME; conditions: CD1, mouse, 10 umol/L
Procedure: (§1) The ratio of decrease of a test compound and the conversion ratio to a corresponding active form (2-acetylthieno[3,2-f][1]benzofuran-4,8-dione) in human plasma and CD1 mouse plasma were measured for Example 1.
(§2) The test compounds were incubated at 37° C. at a concentration of 10 umol/L in human plasma (cat. no. 12250210, Cosmo Bio) and CD1 mouse plasma (cat. no. AP3054, KAC) and retrieved for a given time (0, 5, 10, 30, 60, and 120 minutes) and deproteinized, then analyzed by LC-MS. Acetonitrile comprising each of 10% quantity of 1 mol/L hydrochloric acid, 1% quantity of 46% citric acid, and phenytoin as an internal standard was used for deproteinization.
(§3) LC-MS measurement conditions were the following.
(§4) The yield of the Examples compounds and active form 2-acetylthieno[3,2-f][1]benzofuran-4,8-dione is calculated with each of the peak area of the Example compounds at 0 minutes and the peak area upon dissolution of 2-acetylthieno[3,2-f][1]benzofuran-4,8-dione at 100 umol/L as 100%. The yield is denoted in terms of %.
(§5) In the same manner as Example 1, the conversion ratio to an active form was measured for each of the various test compounds in human plasma and CD1 mouse plasma, with incubation time as 120 minutes. It was confirmed that the series of compounds of the invention was converted to an active form with a small interspecies difference in human plasma and CD1 mouse plasma.
(§6) The yield of the active forms is calculated with the each peak area upon dissolution of the generated active form at 100 umol/L as 100%. The yield is denoted in terms of %.

[2] = physchem; conditions: 50 mmol/L glycine buffer, pH 2, aqueous buffer, thermodynamic from solid
[3] = Evaluation of conversion rate to active form in human plasma; format: in vitro ADME; conditions: human, 10 umol/L
Procedure: as §1, §2, §3, §4, §5, §6

[4] = pH 2

Measurement value % of active form (conversion ratio to active form) ([1]; 0 min) [%] | Measurement value % of active form (conversion ratio to active form) ([1]; 5 min) [%] | Measurement value % of active form (conversion ratio to active form) ([1]; 10 min) [%] | Measurement value % of active form (conversion ratio to active form) ([1]; 30 min) [%] | Measurement value % of active form (conversion ratio to active form) ([1]; 60 min) [%] | Measurement value % of active form (conversion ratio to active form) ([1]; 120 min) [%] | solubility at 24 h [2] [µg/mL] | Measurement value % of active form (conversion ratio to active form) ([3]; 0 min) [%] | Measurement value % of active form (conversion ratio to active form) ([3]; 5 min) [%] | Measurement value % of active form (conversion ratio to active form) ([3]; 10 min) [%] | Measurement value % of active form (conversion ratio to active form) ([3]; 30 min) [%] | Measurement value % of active form (conversion ratio to active form) ([3]; 60 min) [%] | Measurement value % of active form (conversion ratio to active form) ([3]; 120 min) [%] | Structure (SMILES) | Solubility in buffer [4]
0.0 | 21.1 | 36.7 | 70.8 | 73.8 | 71.4 | 4 (≈ 16.2 µM) | 0.0 | 36.4 | 51.6 | 83.4 | 89.7 | 91.3 | CC(=O)c1cc2c(o1)C(=O)c1sccc1C2=O [2-acetylthieno[3,2-f][1]benzofuran-4,8-dione, reference compound] | –
– | – | – | – | – | – | – | – | – | – | – | – | – | C[C@H]1COC2=C1C(=O)C(=O)c1c2ccc2c1CCCC2(C)C [(1R)-1,6,6-trimethyl-1,2,6,7,8,9-hexahydrophenanthro[1,2-b]furan-10,11-dione] | Below

Source: patent publication US20200207782A1, “CHEMICALLY ACTIVATED WATER-SOLUBLE PRODRUG” (SUMITOMO DAINIPPON PHARMA CO., LTD, priority 2017, published 2020)
